Data set [1] deals with MOLT/VCR-5×9, MOLT/DAU-8 and CCRF CEM VCR1000+ tumour cell lines. The source says: (§1) For this, a selected compound of the formula I, the compound (-)-1,4-dihydro-2,6-dimethyl-4-(3-nitrophenyl)-pyridine-3,5-dicarboxylic acid 3-methyl 5- 3(4,4-diphenyl-1-piperidinyl)-propyl! ester hydrochloride (=compound 1), was investigated in more detail as follows:
(§2) The tumour cell lines MOLT/VCR-5×9 (starting density: 1.14×10^6 cells/ml), MOLT/DAU-8 (starting density: 1.01×10^6 cells/ml) and CCRF CEMVCR1000+(starting density: 2.00×10^6 cells/ml), which are resistant towards the cytostatics vincristine and daunomycin, were incubated for 72.5 to 73.25 hours in accordance with the following test pattern:
(§3) 2. Control with the cytostatic relating to the particular cell line (for the concentrations, see below)
(§4) 4. Compound 1 in concentrations of 10^-6 and 10^-7 M
(§5) 5. Compound 1 in concentrations of 10^-6 and 10^-7 M, together with the cytostatic relating to the particular cell line (for the concentrations, see below).
(§6) The cytostatic concentrations used for the individual cell lines were:
(§7) Vincristine: 5×10^-9 M (for MOLT/VCR-5×9)

In a further data set the test system is CCRF CEM VCR1000+ cells. The data set is described as follows: cells. Format: cell-based.
Text: as §1, §2, §3, §4, §5
(§8) The cytostatic concentrations used for the individual cell lines were: […]

Another data set relates to MOLT/DAU-8 cells. Kind of data set: cells. Format: cell-based.
Text: as §1, §2, §3, §4, §5, §8

The subject of another data set is MOLT/VCR-5×9 cells. The data set is described as follows: cells. Format: cell-based.
Text: as §1, §2, §3, §4, §5, §6, §7

The mark [2] stands for this setting: Homo sapiens, CCRF-CEM/VCR-1000, 73.25 h, read-out: Growth inhibition in %, compound 1 by itself.
Setting [3] is: 73.25 h, read-out: Growth inhibition in %, compound 1 by itself.

The structures appear in SMILES notation. Where “and” joins values, the source holds several entries; their conditions need not be identical. Identical values can stand only once. Counter-ions that a name gives are not always drawn.

Data on three molecules can be found in patent US5514664A, “1,4-dihydropyridines for application in combatting resistance to drugs” (BYK Gulden Lomberg Chemische Fabrik GmbH, priority 1990, dated 1996).

For `COC(=O)C1=C(C)NC(C)=C(C(=O)OCCCN2CCC(c3ccccc3)(c3ccccc3)CC2)C1c1cccc([N+](=O)[O-])c1` (single isomer, unassigned; (-)) [Compound 1, (-)-1,4-dihydro-2,6-dimethyl-4-(3-nitrophenyl)-pyridine-3,5-dicarboxylic acid 3-methyl 5-3(4,4-diphenyl-1-piperidinyl)-propyl! ester hydrochloride], the “concentration dependence of growth inhibition (in words)” value in data set [1] was “This inhibition of growth depends on the concentration”. For the same molecule, the “inhibition of growth by compound 1 by itself (in words)” value in data set [1] is on record as “All resistant cells are inhibited in their growth”. Further, the “overcoming of resistance and intensification of cytotoxicity (in words)” value in data set [1] is “the resistance towards cytostatics is overcome and the cytotoxicity of the cytostatics is intensified”. Besides, the inhibition at 0.1 µM amounted to 10% in the data set on CCRF CEM VCR1000+ cells (setting [2]), 43% with MOLT/DAU-8 cells (setting [3]) and 66% in the data set with MOLT/VCR-5×9 cells (setting [3]). For the same molecule, the inhibition at 10 µM in the data set with CCRF CEM VCR1000+ cells (setting [2]) is 67%; with MOLT/DAU-8 cells (setting [3]), 53%; in the data set with MOLT/VCR-5×9 cells (setting [3]), 79%. Besides, the “Growth inhibition in %, compound 1 + cytostatic” value in the data set on CCRF CEM VCR1000+ cells (hydrochloride) is 65 and 90; in the data set with MOLT/DAU-8 cells (hydrochloride), 56 and 96; in the data set on MOLT/VCR-5×9 cells, 99.
For `CC[C@]1(O)C[C@H]2CN(CCc3c([nH]c4ccccc34)[C@@](C(=O)OC)(c3cc4c(cc3OC)N(C=O)[C@H]3[C@@](O)(C(=O)OC)[C@H](OC(C)=O)[C@]5(CC)C=CCN6CC[C@]43[C@@H]65)C2)C1` [Vincristine, reference compound], the inhibition at 1.08 µM in the data set with CCRF CEM VCR1000+ cells (Homo sapiens, CCRF-CEM/VCR-1000, CCRF CEM VCR1000+, vincristine 1.08 × 10^-6 M by itself, 72.5 to 73.25 h, vs DMSO control, read-out: Growth inhibition in %, cytostatic by itself) was 0%. In the data set on MOLT/VCR-5×9 cells (MOLT/VCR-5 × 9, vincristine 5 × 10^-9 M by itself, 72.5 to 73.25 h, vs DMSO control, read-out: Growth inhibition in %, cytostatic by itself), the inhibition at 0.005 µM was 0%.
For the molecule `COc1cccc2c1C(=O)c1c(O)c3c(c(O)c1C2=O)C[C@@](O)(C(C)=O)C[C@@H]3O[C@H]1C[C@H](N)[C@H](O)[C@H](C)O1` [Daunomycin, reference compound], the inhibition at 0.01 µM with MOLT/DAU-8 cells (MOLT/DAU-8, daunomycin 10^-8 M by itself, 72.5 to 73.25 h, vs DMSO control, read-out: Growth inhibition in %, cytostatic by itself) was determined as 0%.

The term inhibition denotes the share of the control response that was lost under treatment.
